Assays:
[1] = test system: p-ACC levels in HEK cells; assay: Cell-intact assay, p-ACC levels in HEK cells; type: cell-based, human; conditions: serum starvation followed by 10% serum; 1 hour
Protocol: (§1) Cell-intact assays. HEK cells were grown in DMEM with 10% FBS and 1% penicillin/streptomycin at 37° C. A subset of plates was serum-starved for 5 hours on the day of the experiment. After 5 hours of serum-starvation, cells were treated with either controls (0.2% DMSO, A-769662, or Compound C) or small molecules in the absence of serum for an additional hour prior to lysis. Another subset of plates was serum-starved for 6 hours and then treated with either controls or small molecules for 1 hour in the presence of 10% FBS. A time course of both AMPK and ACC phosphorylation in HEK cells during serum starvation has already been published (Pirkmajer S, Chibalin A V. Serum starvation: caveat emptor. American journal of physiology Cell physiology. 2011 August; 301(2):C272-9. PubMed PMID: 2161361).
(§2) After incubating in the presence of drugs for one hour, cells were washed three times with ice-cold PBS and lysed according to published methods (Kazgan N, Williams T, Forsberg L J, Brenman J E. Identification of a nuclear export signal in the catalytic subunit of AMP-activated protein kinase. Molecular biology of the cell. 2010 Oct. 1; 21(19):3433-42. PubMed PMID: 20685962. Pubmed Central PMCID: 2947478). Lysates were centrifuged at 16,000 g (10 minutes, 4° C.). Clarified supernatant (30 μL) was then transferred to 10 μL 4X loading buffer and 2 μL 1 M DTT. Samples were immediately frozen at −20° C. The concentration of protein in diluted clarified supernatant was calculated using a DC protein assay kit (BioRad) prior to western analyses.
Western analyses. Protein samples were boiled for 15 minutes in loading buffer and DTT prior to SDS-PAGE. Blots for protein-based assays were sequentially incubated with the following: 5% BSA in 1× TBS (1 hr, 22° C.), 1:1000 rabbit anti-human p-AMPK-α antibody or p-ACC antibody (2 hr, 22° C.), and 1:10,000 donkey anti-rabbit secondary antibody (1 hr, 22° C.). Blots for phosphatase assays were probed a second time using 1:100 mouse anti-human total AMPK antibody (overnight, 4° C.; from UNC Antibody Core Facility) followed by 1:10,000 donkey anti-mouse secondary antibody (1 hr, 22° C.). Blots for clarified cell lysates were sequentially probed for p-AMPK (1:500 dilution, overnight at 4° C. or 4 hours at 22° C.), total ACC (1:1000 dilution, overnight at 4° C. or 4 hours at 22° C.), and tubulin (1:10,000 dilution, 1 hr, 22° C.); a parallel set of blots were probed for p-ACC (1:500 dilution, overnight at 4° C. or 4 hours at 22° C.), total AMPK (1:1000 dilution, overnight at 4° C. or 4 hours at 22° C.), and tubulin (1:10,000 dilution, 1 hr, 22° C.). Because phosphorylated and total protein were imaged on separate membranes, the signals were normalized to the internal tubulin signal prior to calculating the ratio of phosphorylated to total protein. Scanning and imaging were completed according to published methods.

[2] = test system: p-AMPK levels in HEK cells; assay: Cell-intact assay, p-AMPK levels in HEK cells; type: cell-based, human; conditions: serum starvation followed by 10% serum; 1 hour
Protocol: as §1
as §2, with “Lysates were centrifuged at 16,000 g (10 minutes, 4° C.). Clarified supernatant (30 μL) was then transferred to 10 μL 4X loading buffer and 2 μL 1 M DTT. Samples were immediately frozen at −20° C.” left out, “analyses. […]” for “analyses.”

N#Cc1c(O)c2c(-c3ccc(-c4ccccc4O)cc3)csc2[nH]c1=O [Example A-769662, reference compound]
p-ACC levels (substrate phosphorylation), pre-conditioned HEK cells [1]: increased | p-AMPK levels, pre-conditioned HEK cells [2]: increased

Source: patent publication US20160176859A1, “High-Throughput Assay for Identifying Small Molecules that Modulate AMP-activated Protein Kinase (AMPK)” (North Carolina Central University, priority 2013, published 2016)
